In patent publication US7314970B2, “Method for plant breeding” (priority 1997, dated 2008):

Assays:
most plant species = most plant species (Franz, 1985), but not all; cited from earlier work
[1] = tested on: DK580 and DK626 hybrids of FI117, GA21, GG25 and GJ11; assay: Yield effect of glyphosate application on DK580 and DK626 hybrids (field test); format: in vivo, maize
Description: Tests were designed as four row, 3 rep., split-split-plot with main plots as hybrids, subplots as transformant sources (i.e. GA21, GG25, FI117, and GJ11) and subplots as timing/rate combinations […]. Statistical methods for design and analysis of data derived from experimental field plots are described in Gomez and Gomez, (1984). Tests were conducted in Dekalb, Ill., and Thomasboro, Ill. during 1996. All rows were planted at double normal planting density, i.e., 60 seeds per row, because hybrids segregated 1:1 for the glyphosate resistance trait. Sprayed plants were thinned to 30 plants per row no sooner than 7 days after application of Roundup at a time when Roundup susceptible plants could be identified. Unsprayed plots were thinned to 30 plants per row at the same time. […] After thinning, the mean extended leaf height was measured on 10 resistant plants per plot. […]
Four DK580 and four DK626 hybrids, each containing a different mutant EPSPS transgene from one of the GA21, FI117, GJ11 or GG25 transformation events, were field tested for possible effects on yield with glyphosate application as described in Example 12, with treatments as shown in FIG. 13. […] Data were analyzed using the SAS PROC MIXED and PROC SUM procedures. […]

[2] = tested on: DK580 and DK626 BC4 hybrids of FI117, GA21, GG25 and GJ11; assay: Effect of glyphosate application on growth and fertility of DK580 and DK626 hybrids (field test); format: in vivo, maize
Text: BC4 hybrids of DK580 and DK626 were produced containing one of the FI117, GA21, GG25 or GJ11 transformation events as described in example 14. Comparisons of the effect of glyphosate application on growth (mean extended leaf height) and male fertility was compared at both the V4 and V8 developmental stage. The developmental scale that was used to rate the corn plants is well known in the art, and is described in Special Report No. 48, Iowa State University of Science and Technology, Cooperative Extension Service, Ames, Iowa. Each of the hybrids was studied at both the V4 and V8 stage using 0× glyphosate (i.e. water only), 1× glyphosate, or 4× glyphosate (the 1× level corresponds to 16 ounces/acre of ROUNDUP ULTRA™).
Tests were designed as four row, 3 rep., split-split-plot with main plots as hybrids, subplots as transformant sources (i.e. GA21, GG25, FI117, and GJ11) and subplots as timing/rate combinations […]. Statistical methods for design and analysis of data derived from experimental field plots are described in Gomez and Gomez, (1984). Tests were conducted in Dekalb, Ill., and Thomasboro, Ill. during 1996. All rows were planted at double normal planting density, i.e., 60 seeds per row, because hybrids segregated 1:1 for the glyphosate resistance trait. Sprayed plants were thinned to 30 plants per row no sooner than 7 days after application of Roundup at a time when Roundup susceptible plants could be identified. Unsprayed plots were thinned to 30 plants per row at the same time. At 5-10 days after herbicide application, the following data was collected in each row: number of dead plants, number of damaged plants, and number of normal plants. After thinning, the mean extended leaf height was measured on 10 resistant plants per plot. During the remainder of the growing season the following agronomic data was collected: early stand count, seedling vigor, final stand count, plant height, ear height, intactness, stay green, number of barren plants, number of male-sterile plants, number of dropped ears, number of root lodged plants, number of stalks lodged plants, shelled grain weight, per cent grain moisture at harvest, and test weight.

SMILES	phytotoxicity relative to glyphosate (most plant species)	effect on yield ([1]; DK580 hybrids, glyphosate applied at V4 stage)	effect on yield ([1]; DK626 hybrids with GA21 or FI117, V8 stage, 4× rate)	male fertility ([2]; all 4 GA21 treatments)	resistance to glyphosate (mean extended leaf height) ([2]; all 4 transformation events, 1× and 4× application levels (1× = 16 ounces/acre ROUNDUP ULTRA))	male fertility ([2]; application at V4 stage, all plants)	male fertility ([2]; application at V8 stage, only GJ11 and GJ25 treatments)
NCP(=O)(O)O [AMPA, aminomethylphosphonate]	much less phytotoxic than glyphosate						
O=C(O)CNCP(=O)(O)O [glyphosate, N-phosphonomethyl-glycine]		significant decreases in yield are not observed for 3 of the 4 DK580 hybrids	no significant loss in yield	male-fertile plants	significant resistance	male-fertile	male sterile plants
